Data: article PMC5592744 (Frontiers in Microbiology, 2017)

Experiments:
A549 cells [1] = tested on: A549 cells
WT-SrtA = WT-SrtA (Staphylococcus aureus, UniProt Q2FV99); assay: biochemical; type: binding
agrA gene = type: cell-based, Staphylococcus aureus
S. aureus [2] = tested on: S. aureus; design: species or system C57BL/6J mice; settings: mouse, in vivo
S. aureus [3] = assay: microbe, parasite or virus in culture; type: cell-based; settings: Staphylococcus aureus, read-out: minimum inhibitory concentration (MIC)
[4] = tested on: S. aureus invasion of J774 cells; type: cell-based, Staphylococcus aureus
S. aureus USA 300 = type: cell-based, Staphylococcus aureus
S. aureus SrtA (WT-SrtA) = S. aureus SrtA (WT-SrtA) (Staphylococcus aureus, UniProt Q2FV99); assay: biochemical
SpA display in S. aureus = type: cell-based, Staphylococcus aureus
[5] = tested on: S. aureus biofilm formation; type: cell-based, Staphylococcus aureus
A549 cells [6] = type: cell-based
hla gene = type: cell-based, Staphylococcus aureus
[7] = tested on: adhesion of S. aureus to Fn; type: cell-based, Staphylococcus aureus

Sequence of S. aureus SrtA (WT-SrtA) (Q2FV99 60-206): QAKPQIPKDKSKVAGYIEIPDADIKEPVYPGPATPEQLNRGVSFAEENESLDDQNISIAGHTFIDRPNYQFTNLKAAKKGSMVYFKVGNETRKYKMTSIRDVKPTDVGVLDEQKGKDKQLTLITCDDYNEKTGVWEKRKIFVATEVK
Sequence of WT-SrtA (Q2FV99 60-206): as above

## O=C(/C=C/c1ccccc1)c1ccccc1 [chalcone]
A549 cells [1]
  cytotoxic effect in A549 cells: almost no cytotoxic effect
WT-SrtA
  Kd: 16.4 µM
agrA gene
  transcription level of the agrA gene: down-regulated
S. aureus [2]
  survival rate vs. group without treatment: significantly higher
S. aureus [3]
  MIC: > 4.86 mM
[4]
  quantity of bacteria entering J774 cells: significantly decreased
S. aureus USA 300
  growth of S. aureus USA 300: not visibly affected
S. aureus SrtA (WT-SrtA)
  IC50: 53.2 µM
SpA display in S. aureus
  SpA display: significant reductions
[5]
  biofilm formation, untreated vs. treated: quite significant
A549 cells [6]
  Hla-induced A549 cell injury (Live/Dead): obvious reduction in cell injury
  release of LDH into the supernatants: significantly decrease
Hla gene
  transcription level of the hla gene: down-regulated
[7]
  adhesion rate to Fn: no inhibition was observed
